Data as given in BindingDB's records for doi:10.1080/14756360802188420 (Bahauddin Zakariya University, 2009).

Target: Urease (Canavalia ensiformis, UniProt P07374)
Assay: Inhibition Assay
Text: Inhibition assay using urease from jack bean.

Urease, sequence (P07374 whole entry): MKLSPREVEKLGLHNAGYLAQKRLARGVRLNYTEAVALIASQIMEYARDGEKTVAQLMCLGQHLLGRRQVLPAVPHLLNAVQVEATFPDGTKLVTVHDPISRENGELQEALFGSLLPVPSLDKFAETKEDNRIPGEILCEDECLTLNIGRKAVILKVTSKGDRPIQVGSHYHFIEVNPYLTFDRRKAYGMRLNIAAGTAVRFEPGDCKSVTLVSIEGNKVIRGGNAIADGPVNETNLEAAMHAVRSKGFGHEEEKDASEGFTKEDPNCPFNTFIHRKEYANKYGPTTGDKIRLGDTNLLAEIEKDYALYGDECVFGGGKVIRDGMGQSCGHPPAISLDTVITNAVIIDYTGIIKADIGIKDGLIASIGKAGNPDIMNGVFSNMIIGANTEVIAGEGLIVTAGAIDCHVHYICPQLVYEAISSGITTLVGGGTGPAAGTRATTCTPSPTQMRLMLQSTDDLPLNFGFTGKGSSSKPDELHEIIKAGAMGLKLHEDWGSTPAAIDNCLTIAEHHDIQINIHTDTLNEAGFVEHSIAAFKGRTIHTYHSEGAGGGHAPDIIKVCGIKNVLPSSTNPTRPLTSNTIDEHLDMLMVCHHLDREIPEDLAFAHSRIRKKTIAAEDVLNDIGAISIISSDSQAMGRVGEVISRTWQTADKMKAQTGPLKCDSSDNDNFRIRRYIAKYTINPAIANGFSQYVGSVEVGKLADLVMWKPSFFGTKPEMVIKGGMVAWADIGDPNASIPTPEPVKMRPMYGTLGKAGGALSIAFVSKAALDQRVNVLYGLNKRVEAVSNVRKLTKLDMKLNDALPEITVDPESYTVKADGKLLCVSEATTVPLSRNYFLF

Compound `O=C1Nc2ccccc2/C1=N/NC(=S)Nc1c(Cl)cc(Cl)cc1Cl` [Thiosemicarbazone, 2l] has an IC50 of 28.6 µM.
